ChEMBL document CHEMBL1201862, “PubChem BioAssay data set” (2004)
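Results reflect a 48-hour exposure of cells in 96-well plates to compound at five concentrations. GI50 marks 50% less growth.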 Calls of active or inactive are those of the source. Cut-off read from the data, not from the text of the source: active = GI50 up to about 1.1 µM and inactive = higher.

What was measured:
Test in all cases: inhibition of tumour cell growth, NCI panel, 48 h
CAKI-1 = tested on: CAKI-1
T47D = tested on: T47D
UO-31 = tested on: UO-31
SK-MEL-28 = tested on: SK-MEL-28
HOP-62 = tested on: HOP-62
K562 = tested on: K562
OVCAR-5 = tested on: OVCAR-5
HCT-15 = tested on: HCT-15
HL-60 = tested on: HL-60
A498 = tested on: A498
NCI/ADR-RES = tested on: NCI/ADR-RES
LOX IMVI = tested on: LOX IMVI
RPMI-8226 = tested on: RPMI-8226
UACC-257 = tested on: UACC-257
NCI-H23 = tested on: NCI-H23
MDA-MB-231 = tested on: MDA-MB-231
MOLT-4 = tested on: MOLT-4
MDA-N = tested on: MDA-N
SNB-19 = tested on: SNB-19
KM12 = tested on: KM12

SMILES	GI50 (CAKI-1)	GI50 (T47D)	GI50 (UO-31)	GI50 (SK-MEL-28)	GI50 (HOP-62)	GI50 (K562)	GI50 (OVCAR-5)	GI50 (HCT-15)	GI50 (HL-60)	GI50 (A498)	GI50 (NCI/ADR-RES)	GI50 (LOX IMVI)	GI50 (RPMI-8226)	GI50 (UACC-257)	GI50 (NCI-H23)	GI50 (MDA-MB-231)	GI50 (MOLT-4)	GI50 (MDA-N)	GI50 (SNB-19)	GI50 (KM12)
CC1(C)C(CBr)=[N+]([O-])C(C)(C)N1O	2.56 µM (inactive)	2.16 µM (inactive)	> 10 µM (inactive)	> 10 µM (inactive)	> 10 µM (inactive)	> 4.93 µM (inactive)	> 10 µM (inactive)	2.55 µM	> 4.6 µM (inactive)	> 10 µM (inactive)	> 7.24 µM (inactive)	3.7 µM (inactive)	> 5.05 µM (inactive)	8.99 µM (inactive)	3.59 µM (inactive)	> 6.76 µM (inactive)	2.57 µM (inactive)	3.99 µM (inactive)	> 10 µM (inactive)	> 10 µM (inactive)
O=[N+]([O-])c1ccc2[nH]nc(OCc3ccccc3Cl)c2c1	50.4 µM (inactive)	15 µM (inactive)	> 10 µM (inactive)	> 100 µM (inactive)	37.8 µM (inactive)	> 100 µM (inactive)	52.6 µM (inactive)	85.5 µM	> 100 µM (inactive)	37.5 µM (inactive)	25 µM (inactive)	28.6 µM (inactive)	> 100 µM (inactive)	> 100 µM (inactive)	31.9 µM (inactive)	> 100 µM (inactive)	63.5 µM (inactive)	> 100 µM (inactive)	34.7 µM (inactive)	91.4 µM (inactive)
